Patent US20260034112A1, “MULTI-CYCLIC IRAK1 AND IRAK4 INHIBITING COMPOUNDS AND USES THEREOF” (CHILDREN'S HOSPITAL MEDICAL CENTER, priority 2022, published 2026)

System: THP1 cells
Assay type: cell-based, human
Conditions: CA-4948 vs DMSO in THP1 cells

SMILES: Cc1cc(-c2nc(C(=O)Nc3cc4oc(N5CCOCC5)nc4nc3N3CC[C@@H](O)C3)co2)ccn1 [CA-4948, emavusertib]
- Log(FC) of gene FAM57B: 0.9462
- Log(FC) of gene FAM229A: 0.8452
- Log(FC) of gene FBXO15: −0.5977
- Log(FC) of gene FCRLB: 1.162
- Log(FC) of gene FFAR4: 0.5911
- Log(FC) of gene FLJ31945: −0.9544
- Log(FC) of gene FLJ45513: 1.668
- Log(FC) of gene GALR2: 0.6354
- Log(FC) of gene GAS6-AS1: 0.6025
- Log(FC) of gene GDPD3: 0.695
- Log(FC) of gene GIPR: 0.6177
- Log(FC) of gene GJC2: 0.7031
- Log(FC) of gene GNMT: 1.408
- Log(FC) of gene GP9: 0.8031
- Log(FC) of gene GPR3: −0.5921
- Log(FC) of gene GPR113: 0.7578
- Log(FC) of gene GPR135: 0.8057
- Log(FC) of gene GPR158: −0.6058
- Log(FC) of gene GSDMB: 0.7698
- Log(FC) of gene GSTM2: 0.7484
- Log(FC) of gene GUCA1B: 1.348
- Log(FC) of gene HHLA3: 0.7796
- Log(FC) of gene HLA-F-AS1: 0.5961
- Log(FC) of gene HPD: 0.6253
- Log(FC) of gene HSPA7: 0.9538
- Log(FC) of gene ID3: 0.6893
- Log(FC) of gene IGFBP3: −0.9606
- Log(FC) of gene IGFBP7-AS1: 0.9516
- Log(FC) of gene IL8: −0.7139
- Log(FC) of gene IL9R: 1.002
- Log(FC) of gene IL10RB-AS1: 0.6103
- Log(FC) of gene IPO9-AS1: 0.7271
- Log(FC) of gene ITIH4: 1.233
- Log(FC) of gene KCND1: 0.5935
- Log(FC) of gene KCNIP3: −0.6151
- Log(FC) of gene KIAA1324: 0.7793
- Log(FC) of gene KRBA2: −0.8123
- Log(FC) of gene LAMC3: 0.6855
- Log(FC) of gene LDLRAD4: 0.7569
- Log(FC) of gene LHPP: 1.078
- Log(FC) of gene LINC00337: 0.6329
- Log(FC) of gene LINC00641: 0.8241
- Log(FC) of gene LINC00893: 0.737
- Log(FC) of gene LINC00959: 0.7922
- Log(FC) of gene LOC155060: 0.6346
- Log(FC) of gene LOC284889: 0.8366
- Log(FC) of gene LOC644961: 0.6222
- Log(FC) of gene LOC728715: 0.6401
- Log(FC) of gene LOC728752: 0.7225
- Log(FC) of gene LOC100128494: 0.9913
- Log(FC) of gene LOC100129924: 1.019
- Log(FC) of gene LOC100130698: −1.064
- Log(FC) of gene LOC100130705: 0.845
- Log(FC) of gene LOC100133091: 0.5851
- Log(FC) of gene LOC100134868: 0.8444
- Log(FC) of gene LOC100288069: 0.6928
- Log(FC) of gene LOC100288102: −0.6006
- Log(FC) of gene LOC100505771: 0.7704
- Log(FC) of gene LOC100506083: 0.8144
- Log(FC) of gene LOC100506100: 0.8985
- Log(FC) of gene LOC100506472: 0.7649
- Log(FC) of gene LOC100506518: 0.7779
- Log(FC) of gene LOC100506548: 1.108
- Log(FC) of gene LOC100507373: 0.7784
- Log(FC) of gene LOC100507424: 1.26
- Log(FC) of gene LOC100507462: 0.6976
- Log(FC) of gene LOC101927085: −0.6948
- Log(FC) of gene LOC101927119: 0.6408
- Log(FC) of gene LOC101927895: 0.6379
- Log(FC) of gene LOC101927910: 1.281
- Log(FC) of gene LOC101927974: 0.7679
- Log(FC) of gene LOC101928038: 0.8781
- Log(FC) of gene LOC101928055: 0.8595
- Log(FC) of gene LOC101928710: 0.5901
- Log(FC) of gene LOC101928830: 0.7631
- Log(FC) of gene LOC101929046: 0.6794
- Log(FC) of gene LOC101929054: 0.589
- Log(FC) of gene LOC101929112: 0.5992
